Test results as given in patent US6391917B1, “Dialkyl ureas as calcitonin mimetics” (ZymoGenetics, Inc., priority 1998, dated 2002).

Assay: Induction of hypocalcemia in rats
Format: in vivo
Conditions: weanling rats, tail vein, 0.5, 2.5, 5, 50 and 100 ng/rat, serum calcium one hour later
Method: This assay is based on the in vivo acute effect of calcitonin on osteoclasts, which causes rapid retraction of osteoclasts from bone surface (typically within 30 minutes) and which results in decreased bone resorption. See Mills, et al., in Endocrinology 1971—Proceedings of the Third International SymDosium, Taylor (ed), Heinemann Medical, London, pp. 79-88 (1972) and Singer, et al., Clin. Endocrinol. 5(Supp):333s-40s, 1976. The assay method was modified from the method described by Sturtridge and Kumar, Lancet 545:725-6, 1968. For the assay of hypocalcemic activity, weanling male Holtzman Sprague-Dawley rats (22 days old) are infused with vehicle (PBS with 1 mM HCl and 0.1% BSA), calcitonin or calcitonin mimetics through the tail vein. One hour later, blood samples are collected by orbital sinus puncture to determine serum levels of calcium. A decrease in serum calcium indicates a hypocalcemic response. The hypocalcemic response is dose-dependent as determined using salmon calcitonin (0.5, 2.5, 5, 50 and 100 ng/rat) in this model. Inhibition of PTH-induced hypercalcemia in TPTX rats

salmon calcitonin
hypocalcemic response: dose-dependent
